Data reported in patent publication US4110438A, “Method of treating depression” (American Home Products Corporation, priority 1977, dated 1978).

Experiments:
[1] = tested on: patients with endogenous depression; conditions: given in randomized order on days 1, 3 and 5; Lancet 1974; cited from earlier work
[2] = tested on: patients suffering from depression caused by stress or emotional exhaustion; experiment: clinical investigation of LH-RH in patients suffering from depression; type: in vivo, human
Description: Twenty-one patients, suffering from depression caused by stress or emotional exhaustion, were selected for the investigation. Fifteen were female adults, five were male adults and one patient was a young person […]. The latter patient suffered from existential depression and cryptorchidism. Each patient received 300 mcg of LH-RH in a single or divided dose once a month. In this instance the LH-RH was in the form of its hydrochloride acid addition salt and was prepared according to the syntheses reported by Immer et al., noted above. […] Relief from depression usually was observed within 12 hours and in almost all cases within 24 hours. The patients became more cheerful and aware of feeling much better. […] This latter patient sufferred from depression and sexual frigidity; however, in this instance there was no anhedonia regression and some erotic pulsations did occur. […] The greatest hormonal responses coincided with the most evident clinical improvement. In a control study, five patients with established depression were treated with an injection of only the vehicle for the above noted LH-RH dosage.

SMILES | clinical importance in the treatment of endogenous depression [1] | sleep, appetite and disposition for work ([2]; 21 patients, 300 mcg once a month) | time to relief from depression (almost all cases) ([2]; 21 patients, 300 mcg once a month, in almost all cases) | libido response ([2]; 21 patients, 300 mcg once a month, most noticeable in female patients) | time to relief from depression (usually) ([2]; 21 patients, 300 mcg once a month, usually observed) | onset of response after administration ([2]; 21 patients, 300 mcg single or divided dose once a month, hydrochloride salt) | time until symptoms of depression disappear ([2]; 100-800 mcg LH-RH or acid addition salt, moderately to severely depressed patient, usually) | results in stress induced (reactive) depression ([2]; dosages 100-800 mcg, patients suffering from stress induced depression) | hormonal responses: serum levels of luteinizing hormone, follicular stimulating hormone, prolactin and thyrotrophin releasing hormone ([2]; monitored during treatment, greatest responses coincided with most evident clinical improvement) | patients not responding ([2]; of 21 patients, 300 mcg once a month) | gonadotropin response in younger patients (growth of penis, development of scrota) ([2]; younger patients, measured at 30 and 60 days after beginning of treatment)
CC(C)C[C@H](NC(=O)CNC(=O)[C@H](Cc1ccc(O)cc1)NC(=O)[C@H](CO)NC(=O)[C@H](Cc1c[nH]c2ccccc12)NC(=O)[C@H](Cc1c[nH]cn1)NC(=O)[C@@H]1CCC(=O)N1)C(=O)N[C@@H](CCCNC(=N)N)C(=O)N1CCC[C@H]1C(=O)NCC(N)=O [LH-RH, (pyro)-Glu-His-Trp-Ser-Tyr-Gly-Leu-Arg-Pro-Gly-NH2] | of no clinical importance | Sleep and appetite were regularized as well as disposition for work | ≤ 24 h | An improvement in libido response occurred frequently | ≤ 12 h | response was immediate | ≤ 24 h | Especially effective and favorable results | increases in the serum levels | Only one patient did not respond | there was a gonadotropin response
NC(=O)[C@@H]1CCCN1C(=O)[C@H](Cc1cnc[nH]1)NC(=O)[C@@H]1CCC(=O)N1 [thyrotropin releasing hormone] | of no clinical importance |  |  |  |  |  |  |  |  |  | 
